Laboratory results published in ChEMBL document CHEMBL3046594, “Bioactive metabolites from an endophytic fungus of Aspergillus species isolated from seeds of Gloriosa superba Linn” (Med Chem Res, 2013).
The source made the active and inactive calls. The calls are words filed in the database; no cut-off is given here.

Key:
CV-1 = test: Cytotoxicity against Chlorocebus aethiops (African green monkey) CV1 cells assessed as growth inhibition at 20 uM after 48 hr by SRB assay; assay type: functional; conditions: CV-1, 48 h, read-out: GI
A549 = test: Cytotoxicity against Homo sapiens (human) A549 cells assessed as growth inhibition at 20 uM after 48 hr by SRB assay; assay type: functional; conditions: A549, 48 h, read-out: GI
HEp-2 = test: Cytotoxicity against Homo sapiens (human) Hep2 cells assessed as growth inhibition at 20 uM after 48 hr by SRB assay; assay type: functional; conditions: HEp-2, 48 h, read-out: GI
THP-1 [1] = test: Cytotoxicity against Homo sapiens (human) THP1 cells assessed as growth inhibition at 20 uM after 48 hr by SRB assay; assay type: functional; conditions: THP-1, 48 h, read-out: GI
Bacillus subtilis [2] = test: Antibacterial activity against Bacillus subtilis MTCC 2451 assessed as growth inhibition at 5 ug/disk after 24 hr by disk diffusion method; assay type: functional; conditions: MTCC 2451, 24 h, read-out: DIZ
Pseudomonas aeruginosa [3] = test: Antibacterial activity against Pseudomonas aeruginosa MTCC 2642 assessed as growth inhibition at 5 ug/disk after 24 hr by disk diffusion method; assay type: functional; conditions: MTCC 2642, 24 h, read-out: DIZ
Staphylococcus aureus [4] = test: Antibacterial activity against Staphylococcus aureus MTCC 96 assessed as growth inhibition at 5 ug/disk after 24 hr by disk diffusion method; assay type: functional; conditions: MTCC 96, 24 h, read-out: DIZ
Salmonella typhi [5] = test: Antibacterial activity against Salmonella enterica subsp. enterica serovar Typhi MTCC 1251 assessed as growth inhibition at 5 ug/disk after 24 hr by disk diffusion method; assay type: functional; conditions: MTCC 1251, 24 h, read-out: DIZ
Escherichia coli [6] = test: Antibacterial activity against Escherichia coli MTCC 82 assessed as growth inhibition at 5 ug/disk after 24 hr by disk diffusion method; assay type: functional; conditions: MTCC 82, 24 h, read-out: DIZ
Salmonella typhi [7] = test: Antibacterial activity against Salmonella enterica subsp. enterica serovar Typhi MTCC 1251 assessed as growth inhibition at 2 mg/mL after 24 hr by disk diffusion method; assay type: functional, organism-based
Saccharomyces cerevisiae = test: Antifungal activity against Saccharomyces cerevisiae MTCC 172 assessed as growth inhibition at 2 mg/mL after 48 hr by disk diffusion method; assay type: functional
Goffeauzyma gastrica = test: Antifungal activity against Cryptococcus gastricus MTCC 1715 assessed as growth inhibition at 2 mg/mL after 48 hr by disk diffusion method; assay type: functional
Candida albicans = test: Antifungal activity against Candida albicans MTCC 3018 assessed as growth inhibition at 2 mg/mL after 48 hr by disk diffusion method; assay type: functional
Escherichia coli [8] = test: Antibacterial activity against Escherichia coli MTCC 82 assessed as growth inhibition at 2 mg/mL after 24 hr by disk diffusion method; assay type: functional
Staphylococcus aureus [9] = test: Antibacterial activity against Staphylococcus aureus MTCC 96 assessed as growth inhibition at 2 mg/mL after 24 hr by disk diffusion method; assay type: functional
Bacillus subtilis [10] = test: Antibacterial activity against Bacillus subtilis MTCC 2451 assessed as growth inhibition at 2 mg/mL after 24 hr by disk diffusion method; assay type: functional
Pseudomonas aeruginosa [11] = test: Antibacterial activity against Pseudomonas aeruginosa MTCC 2642 assessed as growth inhibition at 2 mg/mL after 24 hr by disk diffusion method; assay type: functional
THP-1 [12] = test: Cytotoxicity against Homo sapiens (human) THP1 cells assessed as growth inhibition at 10 to 100 uM after 48 hr by SRB assay; assay type: functional, cell-based
MCF7 = test: Cytotoxicity against Homo sapiens (human) MCF7 cells assessed as growth inhibition at 10 to 100 uM after 48 hr by SRB assay; assay type: functional, cell-based

O=c1[nH]cc(F)c(=O)[nH]1 [FLUOROURACIL]
inhibition of growth at 20 µM (CV-1): 43% | inhibition of growth at 20 µM (A549): 79% | inhibition of growth at 20 µM (HEp-2): 87% | inhibition of growth at 20 µM (THP-1 [1]): 79%

CC1(C)S[C@@H]2[C@H](NC(=O)[C@H](N)c3ccc(O)cc3)C(=O)N2[C@H]1C(=O)O [AMOXICILLIN]
zone of inhibition at 5 µg/disc (Bacillus subtilis [2]): 20 mm | zone of inhibition at 5 µg/disc (Pseudomonas aeruginosa [3]): 19 mm | zone of inhibition at 5 µg/disc (Staphylococcus aureus [4]): 21 mm | zone of inhibition at 5 µg/disc (Salmonella typhi [5]): 18 mm | zone of inhibition at 5 µg/disc (Escherichia coli [6]): 20 mm

CC(C)[C@@H](C)/C=C/[C@@H](C)[C@H]1CC[C@H]2C3=CC=C4C[C@@H](O)CC[C@]4(C)[C@H]3CC[C@]12C [ERGOSTEROL]
growth inhibition (GI) (Salmonella typhi [7]): inactive | growth inhibition (GI) (Saccharomyces cerevisiae): inactive | growth inhibition (GI) (Goffeauzyma gastrica): inactive | growth inhibition (GI) (Candida albicans): inactive | growth inhibition (GI) (Escherichia coli [8]): inactive | zone of inhibition at 2000 µg/mL (Staphylococcus aureus [9]; MTCC 96, 24 h, read-out: DIZ): 11.2 mm | growth inhibition (GI) (Bacillus subtilis [10]): inactive | zone of inhibition at 2000 µg/mL (Pseudomonas aeruginosa [11]; MTCC 2642, 24 h, read-out: DIZ): 8.7 mm

COC(=O)c1ccc(O)cc1C(=O)OC
growth inhibition (GI) (Salmonella typhi [7]): inactive | growth inhibition (GI) (Saccharomyces cerevisiae): inactive | growth inhibition (GI) (Goffeauzyma gastrica): inactive | growth inhibition (GI) (Candida albicans): inactive | growth inhibition (GI) (Escherichia coli [8]): inactive | growth inhibition (GI) (THP-1 [12]): Active | growth inhibition (GI) (Staphylococcus aureus [9]): inactive | growth inhibition (GI) (Bacillus subtilis [10]): inactive | growth inhibition (GI) (MCF7): Active | growth inhibition (GI) (Pseudomonas aeruginosa [11]): inactive
